Structures are written as SMILES. pEC50: −log10 of the molar value.

In this assay the test system is Human Pan T Cell (IL-2 release). The assay can be described thus: IL2 released by human pan T cell upon anti-CD3/anti-CD28 stimulation (ELISA). The assay is classed as cell-based. Particulars: human pan T cells; for pEC50: IL-2 response, calculated with GraphPad Prism; for EC2x (nM) / EC (2-fold response): concentration of compound that gives 200% IL-2 response (2 folds) over DMSO control; for EC (2-fold response) / maximal fold induction: 48 h; for maximal fold induction: read-out: IL-2 Max Fold Response. The procedure, abridged:
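Primary human pan-T cells, negatively isolated from PBMC, plated at 100,000 cells/well and stimulated with immobilized anti-CD3 plus soluble anti-CD28 in presence of test compound at varying concentrations. After 2 days, secreted IL-2 in supernatant quantified by ELISA.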

[1] abbreviates: Homo sapiens, T-cell, response of IL-2 over DMSO control, anti-CD3/anti-CD28, 48 hours, ELISA.

Take `COc1cc2c(cc1Nc1ncc(Cl)c(N3CC(C)(CC(=O)O)c4ccc(F)cc43)n1)CN(C)CC2` (single isomer, unassigned) [Example 153]: the negative logarithm of the EC50 (pEC50) was 6.30 to 7.00 and the “EC2x (nM)” value was “+++ (“+++”, for higher values than “++++” but less than or equal to 500 nM)”. Further, the “IL-2 Max Fold Response” value (response of IL-2 over DMSO control, anti-CD3/anti-CD28, 48 hours, ELISA) is reported as more than 2.

With `COc1cc2c(cc1Nc1ncc(Cl)c(N3C[C@@](C)(C(=O)O)c4ccccc43)n1)CN(C)CC2` (single isomer, unassigned) [Example 119], under “Homo sapiens, T-cell”, the EC (2-fold response) is not above 0.1 µM and the negative logarithm of the EC50 (pEC50) was not below 7.00. Further, under setting [1], the maximal fold induction was more than 2.

For the compound `COc1cc2c(cc1Nc1ncc(Cl)c(N3CC(C)(C#N)c4ccccc43)n1)CN(C)CC2` (stereo not drawn) [Example 121, 1-(5-Chloro-2-((6-methoxy-2-methyl-1,2,3,4-tetrahydroisoquinolin-7-yl)amino)pyrimidin-4-yl)-3-methylindoline-3-carbonitrile], the maximal fold induction under setting [1] is less than 2.

Turning to `CCOC(=O)CC1(C)CN(c2nc(Nc3cc4c(cc3OC)CCN(C)C4)ncc2Cl)c2ccccc21` (stereo not drawn) [Example 149], the maximal fold induction under setting [1] is less than 2.

As to `COc1cc2c(cc1Nc1ncc(Cl)c(N3CCc4ccc(Cl)cc43)n1)CN(C)CC2` [Example 18, N-(5-chloro-4-(6-chloroindolin-1-yl)pyrimidin-2-yl)-6-methoxy-2-methyl-1,2,3,4-tetrahydroisoquinolin-7-amine], the maximal fold induction under setting [1] was less than 2. The pEC50 (Homo sapiens, T-cell) is 6.30 to 7.00.

On to `COc1cc2c(cc1Nc1ncc(Cl)c(N3CC(C(=O)O)C4(CCCCC4)C3)n1)CN(C)CC2` (stereo not drawn) [Example 167, 2-(5-Chloro-2-((6-methoxy-2-methyl-1,2,3,4-tetrahydroisoquinolin-7-yl)amino)pyrimidin-4-yl)-2-azaspiro[4.5]decane-4-carboxylic acid], for which, under “Homo sapiens, T-cell”, the EC (2-fold response) was in the range of 0.1 to 0.5 µM and the pEC50 was 6.00 to 6.30. Further, under setting [1], the maximal fold induction was more than 2.

Take `CN1CCc2cc(F)c(Nc3ncc(Cl)c(N4CC(C)(CC(=O)O)c5ccccc54)n3)cc2C1` (stereo not drawn) [Example 156]: for the setting “Homo sapiens, T-cell”, the EC (2-fold response) was not above 0.1 µM and the negative-log EC50 (pEC50) is not below 7.00. Under setting [1], the maximal fold induction is more than 2.

Regarding `COc1cc2c(cc1Nc1ncc(Cl)c(N3CC(C(=O)NO)c4ccccc43)n1)CN(C)CC2` (stereo not drawn) [Example 101, 1-(5-Chloro-2-((6-methoxy-2-methyl-1,2,3,4-tetrahydroisoquinolin-7-yl)amino)pyrimidin-4-yl)-N-hydroxyindoline-3-carboxamide], the maximal fold induction under setting [1] is less than 2.

Take `COc1cc2c(cc1Nc1ncc(Cl)c(-n3cc(C4(O)COC4)c4ccccc43)n1)CN(C)CC2` [Example 93]: the maximal fold induction under setting [1] is less than 2.

For `COc1cc2c(cc1Nc1ncc(Cl)c(N3CC(C)(CC(=O)O)c4ccc(F)cc43)n1)CN(C)CC2` (stereo not drawn) [Example 151], under “Homo sapiens, T-cell”, the EC (2-fold response) is not above 0.1 µM and the pEC50 was not below 7.00. Under setting [1], the maximal fold induction was more than 2.

Consider `CCN1CCc2cc(OC)c(Nc3ncc(Cl)c(N4CC(C)(CC(=O)O)c5ccccc54)n3)cc2C1` (stereo not drawn) [Example 157, 2-(1-(5-Chloro-2-((2-ethyl-6-methoxy-1,2,3,4-tetrahydroisoquinolin-7-yl)amino)pyrimidin-4-yl)-3-methylindolin-3-yl)acetic acid], for which, where the note is “Homo sapiens, T-cell”, the EC (2-fold response) is not above 0.1 µM and the pEC50 is not below 7.00. Further, under setting [1], the maximal fold induction was more than 2.

Turning to `COc1cc2c(cc1Nc1ncc(Cl)c(-n3cc(CC(=O)OC(C)C)c4ccccc43)n1)CN(C)CC2` [Example 130, Isopropyl 2-(1-(5-chloro-2-((6-methoxy-2-methyl-1,2,3,4-tetrahydroisoquinolin-7-yl)amino)pyrimidin-4-yl)-1H-indol-3-yl)acetate], the maximal fold induction under setting [1] is less than 2.

Take `CN1CCc2cc(Cl)c(Nc3ncc(Cl)c(N4CCc5ccccc54)n3)cc2C1` [Example 15, 6-Chloro-N-(5-chloro-4-(indolin-1-yl)pyrimidin-2-yl)-2-methyl-1,2,3,4-tetrahydroisoquinolin-7-amine]: the “EC2x (nM)” value was “+ (“+”, for greater than 1 μM)”. For the same compound, the maximal fold induction under setting [1] was more than 2. Moreover, the negative-log EC50 (pEC50) (Homo sapiens, T-cell) is less than 6.00.

As to `COc1cc2c(cc1Nc1ncc(Cl)c(-n3cc(C(=O)N(C)C)c4ccccc43)n1)CN(C)CC2` [Example 8], the maximal fold induction under setting [1] is less than 2.

On to `COc1cc2c(cc1Nc1ncc(Cl)c(-n3cnc4ccccc43)n1)CN(C)CC2` [Example 9, N-(4-(1H-benzo[d]imidazol-1-yl)-5-chloropyrimidin-2-yl)-6-methoxy-2-methyl-1,2,3,4-tetrahydroisoquinolin-7-amine], for which the “EC2x (nM)” value is recorded as “++ (“++”, for higher values than “+++” but less than or equal to 1 μM)”. Moreover, the maximal fold induction under setting [1] is more than 2. Also, the negative logarithm of the EC50 (pEC50) (Homo sapiens, T-cell) was 6.30 to 7.00.

Turning to `COc1cc2c(cc1Nc1ncc(Cl)c(N3CCc4ncccc43)n1)CN(C)CC2` [Example 16, N-(5-chloro-4-(2,3-dihydro-1H-pyrrolo[3,2-b]pyridin-1-yl)pyrimidin-2-yl)-6-methoxy-2-methyl-1,2,3,4-tetrahydroisoquinolin-7-amine], the maximal fold induction under setting [1] was less than 2. Where the note is “Homo sapiens, T-cell”, the pEC50 is 6.30 to 7.00.

With `COc1cc2c(cc1Nc1ncc(Cl)c(N3CC(C)(C(=O)O)c4ccc(F)cc43)n1)CN(C)CC2` (stereo not drawn) [Example 126], where the note is “Homo sapiens, T-cell”, the EC (2-fold response) was not above 0.1 µM and the negative logarithm of the EC50 (pEC50) is not below 7.00. Besides, the maximal fold induction under setting [1] was more than 2.

As for `COc1cc2c(cc1Nc1ncc(Cl)c(N3CC(c4nn[nH]n4)c4ccccc43)n1)CN(C)CC2` (stereo not drawn) [Example 100, N-(4-(3-(2H-tetrazol-5-yl)indolin-1-yl)-5-chloropyrimidin-2-yl)-6-methoxy-2-methyl-1,2,3,4-tetrahydroisoquinolin-7-amine], the “EC2x (nM)” value is listed as “+ (“+”, for greater than 1 μM)”. In addition, the maximal fold induction under setting [1] is more than 2. Under “Homo sapiens, T-cell”, the pEC50 was less than 6.00.

Consider `COc1cc2c(cc1Nc1ncc(Cl)c(N3CC(C(=O)N(C)O)c4ccccc43)n1)CN(C)CC2` (stereo not drawn) [Example 102], for which, under setting [1], the maximal fold induction was less than 2.

On to `COc1cc2c(cc1Nc1ncc(Cl)c(-n3cc(CC(=O)O)c4ccc(F)cc43)n1)CN(C)CC2` [Example 139], for which, for the setting “Homo sapiens, T-cell”, the EC (2-fold response) was not above 0.1 µM and the negative-log EC50 (pEC50) was not below 7.00. In addition, the maximal fold induction under setting [1] was more than 2.

Take `CNC(=O)C1CN(c2nc(Nc3cc4c(cc3OC)CCN(C)C4)ncc2Cl)c2ccccc21` (stereo not drawn) [Example 97, 1-(5-Chloro-2-((6-methoxy-2-methyl-1,2,3,4-tetrahydroisoquinolin-7-yl)amino)pyrimidin-4-yl)-N-methylindoline-3-carboxamide]: the “EC2x (nM)” value is “++ (“++”, for higher values than “+++” but less than or equal to 1 μM)”. The maximal fold induction under setting [1] was more than 2. The pEC50 (Homo sapiens, T-cell) was 6.30 to 7.00.

For `COc1cc2c(cc1Nc1ncc(Cl)c(N3CCc4cc(C(F)F)ccc43)n1)CN(C)CC2` [Example 90, N-(5-chloro-4-(5-(difluoromethyl)indolin-1-yl)pyrimidin-2-yl)-6-methoxy-2-methyl-1,2,3,4-tetrahydroisoquinolin-7-amine], the maximal fold induction under setting [1] was less than 2. The negative-log EC50 (pEC50) (Homo sapiens, T-cell) was less than 6.00.

In the case of `COc1cc2c(cc1Nc1ncc(Cl)c(N3CC(C)(CC(=O)O)c4ccccc43)n1)CN(C(C)C)CC2` (stereo not drawn) [Example 158, 2-(1-(5-Chloro-2-((2-isopropyl-6-methoxy-1,2,3,4-tetrahydroisoquinolin-7-yl)amino)pyrimidin-4-yl)-3-methylindolin-3-yl)acetic acid], under “Homo sapiens, T-cell”, the EC (2-fold response) was not above 0.1 µM and the pEC50 is not below 7.00. Also, the maximal fold induction under setting [1] is more than 2.

Regarding `CN1CCc2ccc(Nc3ncc(Cl)c(N4CCc5ccccc54)n3)cc2C1` [Example 14, N-(5-Chloro-4-(indolin-1-yl)pyrimidin-2-yl)-2-methyl-1,2,3,4-tetrahydroisoquinolin-7-amine], under setting [1], the maximal fold induction was less than 2.

As for `COc1cc2c(cc1Nc1ncc(Cl)c(N3CC(C)(CC(=O)O)c4cc(F)c(F)cc43)n1)CN(C)CC2` (stereo not drawn) [Example 154], where the note is “Homo sapiens, T-cell”, the EC (2-fold response) was not above 0.1 µM and the negative-log EC50 (pEC50) was not below 7.00. For the same compound, the maximal fold induction under setting [1] was more than 2.

As for `COc1cc2c(cc1Nc1ncc(F)c(N3CC(C(=O)O)c4ccccc43)n1)CN(C)CC2` (stereo not drawn) [Example 109, 1-(5-Fluoro-2-((6-methoxy-2-methyl-1,2,3,4-tetrahydroisoquinolin-7-yl)amino)pyrimidin-4-yl)indoline-3-carboxylic acid], the “EC2x (nM)” value is given as “++ (“++”, for higher values than “+++” but less than or equal to 1 μM)”. Moreover, the maximal fold induction under setting [1] was more than 2. The pEC50 (Homo sapiens, T-cell) was 6.30 to 7.00.

For the compound `COc1cc2c(cc1Nc1ncc(Cl)c(N3CC(C#N)c4ccccc43)n1)CN(C)CC2` (stereo not drawn) [Example 99, 1-(5-Chloro-2-((6-methoxy-2-methyl-1,2,3,4-tetrahydroisoquinolin-7-yl)amino)pyrimidin-4-yl)indoline-3-carbonitrile], the maximal fold induction under setting [1] was less than 2.

In the case of `COc1cc2c(cc1Nc1ncc(C#N)c(N3CC(C(=O)O)c4ccccc43)n1)CN(C)CC2` (stereo not drawn) [Example 110, 1-(5-Cyano-2-((6-methoxy-2-methyl-1,2,3,4-tetrahydroisoquinolin-7-yl)amino)pyrimidin-4-yl)indoline-3-carboxylic acid], under setting [1], the maximal fold induction was less than 2.

In the case of `COc1cc2c(cc1Nc1ncc(Cl)c(-n3cc(CC(N)=O)c4ccccc43)n1)CN(C)CC2` [Example 133], the maximal fold induction under setting [1] is less than 2. For the setting “Homo sapiens, T-cell”, the pEC50 was less than 6.00.

As to `COc1cc2c(cc1Nc1ncc(Cl)c(N3CC(C)(CC(=O)O)c4ccccc43)n1)CN(C)CC2` (stereo not drawn) [Example 146], for the setting “Homo sapiens, T-cell”, the EC (2-fold response) is not above 0.1 µM and the pEC50 is not below 7.00. Besides, the maximal fold induction under setting [1] was more than 2.

The values are drawn from patent publication US12612424B2, “HPK1 inhibitors and uses thereof” (Regor Pharmaceuticals, Inc., priority 2019, dated 2026).
